US9593149B2, “Amylin and calcitonin receptor agonist” (Novo Nordisk A/S, priority 2014, dated 2017)
Numbered stars: 1 amine (or outer) side, 2 acyl side, 3 side chain; on linkers, the order of the positions; unused ones are H or OH. Side chains are listed from the residue outwards. Peptide text beside a SMILES is read from it. * marks the point of attachment. C20 diacid = O=C(O)CCCCCCCCCCCCCCCCCCC(=O)*; C18 diacid = O=C(O)CCCCCCCCCCCCCCCCC(=O)*; γGlu = O=C(O)[C@H](CCC(=O)[*:2])N[*:1]

How the values were obtained:
[1] = target: T1, human calcitonin receptor (Homo sapiens, UniProt P30988); experiment: Assay (VII) binding to the human calcitonin receptor (membrane, SPA); details: membranes, 125I-Calcitonin; read-out: hCT-R binding IC50
T1 construct: expressed in transfected cells; host or cells: BHK tk'ts 13
T1 sequence (P30988 25-474): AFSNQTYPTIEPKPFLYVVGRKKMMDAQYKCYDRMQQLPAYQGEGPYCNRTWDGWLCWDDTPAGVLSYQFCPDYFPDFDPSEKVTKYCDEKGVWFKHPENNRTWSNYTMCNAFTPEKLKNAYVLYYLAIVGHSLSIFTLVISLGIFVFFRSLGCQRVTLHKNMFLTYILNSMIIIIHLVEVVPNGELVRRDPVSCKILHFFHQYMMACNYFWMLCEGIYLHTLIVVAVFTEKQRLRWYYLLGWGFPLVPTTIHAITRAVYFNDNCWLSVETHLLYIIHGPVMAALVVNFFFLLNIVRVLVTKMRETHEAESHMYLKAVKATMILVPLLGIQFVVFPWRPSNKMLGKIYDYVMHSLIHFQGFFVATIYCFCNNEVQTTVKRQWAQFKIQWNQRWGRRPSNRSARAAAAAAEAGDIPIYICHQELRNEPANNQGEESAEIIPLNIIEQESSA
Experimental: Assay (VII)—Determination of Binding to the Human Calcitonin Receptor (Membrane)
The binding assay was performed using scintillation proximity assay (SPA) beads (RPNQ0001) from PerkinElmer® and cell membranes prepared from a BHK tk'ts 13 cell line was stably transfected with the human calcitonin receptor and a CRE-responsive luciferase reporter gene. Membranes were prepared in the following way; the cells were rinsed with PBS and incubated with Versene for approximately 5 min before harvesting. The cells were flushed with PBS and the cell-suspension was centrifuged for 5 min at 1000 rpm. Cells were homogenized in a buffer containing 20 mM Na-HEPES and 10 mM EDTA (pH 7.4) and centrifuged at 20.000 rpm for 15 min. The resulting pellet was resuspended, homogenized and centrifuged (20.000 rpm, 15 min) in a buffer containing 20 mM Na-HEPES and 0.1 mM EDTA (pH 7.4, buffer 2). The resulting pellet was resuspended in buffer 2 and protein concentration was tested (BCA protein Assay, Pierce). The homogenate was kept cold during the whole procedure. The membranes were kept at −80° C. until use. Assay was performed in a 384 well Optiplate (PerkinElmer®) in a total volume of 40 ul. Membranes were mixed with SPA beads. Final concentration of membranes 35 ng/μL final and Final concentration of SPA beads was 0.05 mg/well. Test-compounds were dissolved in DMSO and further diluted in assay buffer (50 mM Hepes, pH 7.4, 1 mM CaCl2, 5 mM MgCl2, 0.1% OA and 0.02% Tween20). Radioligand ^125I-Calcitonin was dissolved in assay buffer and added to the Optiplate at a final concentration of 75 pM/well (approx. 30.000 cpm/10 ul). The final mixture was incubated for 120 min with shaking at 400 rpm at 25° C. prior to centrifugation (1500 rpm, 10 min). Samples were analyzed on TopCounter™ (Packard). The IC50 was calculated using (one site binding competition analysis) GraphPad Prism5 as a measure of receptor affinity.

[2] = target: T2, rat amylin receptor (rat calcitonin receptor + rat RAMP 3) (Rattus norvegicus, UniProt P32214+Q9JJ73); experiment: Assay (VI) binding to the rat amylin receptor (membrane); details: membranes; read-out: rAmylin-R binding IC50
T2 construct: expressed in transfected cells; host or cells: BHK tk'ts 13 (transient, FuGENE 6)
T2 sequence (P32214 25-479 isoform P32214-2 limits assumed): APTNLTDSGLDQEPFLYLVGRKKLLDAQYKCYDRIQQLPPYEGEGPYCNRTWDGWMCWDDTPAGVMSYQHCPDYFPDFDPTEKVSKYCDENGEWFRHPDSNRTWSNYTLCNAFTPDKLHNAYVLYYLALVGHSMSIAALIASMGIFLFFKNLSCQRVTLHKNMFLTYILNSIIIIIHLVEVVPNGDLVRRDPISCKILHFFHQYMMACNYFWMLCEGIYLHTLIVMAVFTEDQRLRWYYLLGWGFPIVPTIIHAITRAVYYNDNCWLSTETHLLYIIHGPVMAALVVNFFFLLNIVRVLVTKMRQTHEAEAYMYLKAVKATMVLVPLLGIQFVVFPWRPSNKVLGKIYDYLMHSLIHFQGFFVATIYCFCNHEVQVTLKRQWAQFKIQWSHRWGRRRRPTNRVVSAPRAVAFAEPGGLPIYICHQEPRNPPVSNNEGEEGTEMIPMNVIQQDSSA
T2 sequence (Q9JJ73 23-147 partner): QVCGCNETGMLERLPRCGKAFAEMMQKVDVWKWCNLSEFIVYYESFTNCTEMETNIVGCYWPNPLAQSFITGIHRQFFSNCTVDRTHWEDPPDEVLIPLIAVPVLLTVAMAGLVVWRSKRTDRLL
Experimental: The assay was performed as described above (Assay (V)—Determination of binding to the human amylin receptor) with the exception that we used membranes prepared from BHK tk'ts 13 cells that were transiently transfected with the rat calcitonin receptor rat RAMP 3 at an equimolar ratio […]. The BHK tk'ts 13 cells were transiently transfected with rat calcitonin receptor using FuGENE® 6 (Roche), according to the manufacturer's recommendations. Cells were grown in DMEM with 10% FBS and 1% Pen/Strep. Approximately 48 hours after transfection, the cells were harvested and membranes were prepared.

rat calcitonin receptor = target: T3, rat calcitonin receptor (Rattus norvegicus, UniProt P32214); experiment: Assay (VIII) binding to the rat calcitonin receptor; details: membranes; read-out: rCT-R binding IC50
T3 construct: expressed in transfected cells; host or cells: BHK tk'ts 13 (transient, FuGENE 6)
T3 sequence (P32214 25-479 isoform P32214-2 limits assumed): T2 sequence (P32214 25-479 isoform P32214-2 limits assumed)
How it was run: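 Competition binding on membranes from BHK tk'ts 13 cells transiently transfected with rat calcitonin receptor, otherwise run as the human receptor assay. Plates washed in cold HBSS, lysed in 0.1 M NaOH/1% SDS and scintillation-counted. IC50 from one-site competition fit as affinity measure.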

| IC50 [1] | IC50 [2] | IC50 (rat calcitonin receptor) | Compound |
| --- | --- | --- | --- |
| 0.108 nM | 0.025 nM | 0.044 nM | CC(C)C[C@H](NC(=O)[C@H](C)NC(=O)[C@H](C)NC(=O)[C@@H](NC(=O)[C@H](CO)NC(=O)[C@H](CC(C)C)NC(=O)[C@H](CCC(=O)O)NC(=O)[C@H](CO)NC(=O)[C@H](C)NC(=O)[C@H](C)NC(=O)CC[C@H](NC(=O)CCCCCCCCCCCCCCCCCCC(=O)O)C(=O)O)[C@@H](C)O)C(=O)NCC(=O)N[C@@H](CCCNC(=N)N)C(=O)N[C@@H](CC(C)C)C(=O)N[C@@H](CO)C(=O)N[C@@H](C)C(=O)N[C@@H](CCC(=O)O)C(=O)N[C@@H](CC(C)C)C(=O)N[C@@H](Cc1c[nH]cn1)C(=O)N[C@@H](CCC(=O)O)C(=O)N[C@@H](CC(C)C)C(=O)N[C@@H](C)C(=O)N[C@H](C(=O)N[C@@H](Cc1ccc(O)cc1)C(=O)N1CCC[C@H]1C(=O)N[C@@H](CCCNC(=N)N)C(=O)N[C@H](C(=O)N[C@@H](CCC(=O)O)C(=O)N[C@H](C(=O)NCC(=O)N[C@@H](CO)C(=O)NCC(=O)N[C@@H](CO)C(=O)N1CCC[C@H]1C(N)=O)[C@@H](C)O)[C@@H](C)O)[C@@H](C)O [compound 57, [N-terminal(C20 diacid-gGlu), 1A, 23Y, 30S, 31G]mimylin] ({C20 diacid-γGlu}-AASELSTAALGRLSAELHELATYPRTETGSGSP-NH2) |
| 0.222 nM | 0.162 nM | 0.072 nM | CC(C)C[C@H](NC(=O)[C@H](CCC(=O)O)NC(=O)[C@H](C)NC(=O)[C@@H](NC(=O)[C@H](CC(C)C)NC(=O)[C@H](CCCNC(=N)N)NC(=O)CNC(=O)[C@H](CC(C)C)NC(=O)[C@@H](NC(=O)[C@H](C)NC(=O)[C@@H](NC(=O)[C@@H](NC(=O)[C@H](CC(C)C)NC(=O)[C@H](CCC(=O)O)NC(=O)[C@H](CO)NC(=O)[C@H](C)NC(=O)CC[C@H](NC(=O)CCCCCCCCCCCCCCCCC(=O)O)C(=O)O)[C@@H](C)O)[C@@H](C)O)C(C)C)[C@@H](C)O)C(=O)N[C@@H](Cc1c[nH]cn1)C(=O)N[C@@H](CCC(=O)O)C(=O)N[C@@H](CC(C)C)C(=O)N[C@@H](CCC(=O)O)C(=O)N[C@H](C(=O)N[C@@H](CC(C)C)C(=O)N1CCC[C@H]1C(=O)N[C@@H](CCCNC(=N)N)C(=O)N[C@H](C(=O)N[C@@H](CCC(=O)O)C(=O)N[C@H](C(=O)NCC(=O)N[C@H](C(=O)NCC(=O)N[C@H](C(=O)N1CCC[C@H]1C(N)=O)[C@@H](C)O)[C@@H](C)O)[C@@H](C)O)[C@@H](C)O)[C@@H](C)O [compound 105, [N-terminal(C18 diacid-gGlu), des1, 6T, 9V, 14T, 21E, 30T, 31G, 32T]mimylin] ({C18 diacid-γGlu}-ASELTTAVLGRLTAELHELETLPRTETGTGTP-NH2) |
| 0.085 nM | 0.146 nM | 0.021 nM | CC(C)C[C@H](NC(=O)[C@H](CCCNC(=N)N)NC(=O)CNC(=O)[C@H](CC(C)C)NC(=O)[C@@H](NC(=O)[C@H](C)NC(=O)[C@@H](NC(=O)[C@H](CO)NC(=O)[C@H](CC(C)C)NC(=O)[C@H](CCC(=O)O)NC(=O)[C@H](CO)NC(=O)[C@H](C)NC(=O)CC[C@H](NC(=O)CCCCCCCCCCCCCCCCCCC(=O)O)C(=O)O)[C@@H](C)O)C(C)C)C(=O)N[C@@H](CO)C(=O)N[C@@H](CCC(N)=O)C(=O)N[C@@H](CCC(=O)O)C(=O)N[C@@H](CC(C)C)C(=O)N[C@@H](Cc1c[nH]cn1)C(=O)N[C@@H](CCC(=O)O)C(=O)N[C@@H](CC(C)C)C(=O)N[C@@H](CCC(N)=O)C(=O)N[C@H](C(=O)N[C@@H](Cc1ccc(O)cc1)C(=O)N1CCC[C@H]1C(=O)N[C@@H](CCCNC(=N)N)C(=O)N[C@H](C(=O)N[C@@H](CCC(=O)O)C(=O)N[C@H](C(=O)NCC(=O)N[C@@H](CO)C(=O)NCC(=O)N[C@H](C(=O)N[C@@H](Cc1ccc(O)cc1)C(N)=O)[C@@H](C)O)[C@@H](C)O)[C@@H](C)O)[C@@H](C)O [compound 114, [N-terminal(C20 diacid-gGlu), des1, 9V, 15Q, 21Q, 23Y, 30S, 31G, 32T, 33Y]mimylin] |
| 0.01 nM | 0.046 nM | 0.01 nM | CC(=O)N[C@@H](C)C(=O)N[C@@H](CO)C(=O)N[C@@H](CCCCNC(=O)CC[C@H](NC(=O)CCCCCCCCCCCCCCCCCCC(=O)O)C(=O)O)C(=O)N[C@@H](CC(C)C)C(=O)N[C@@H](CO)C(=O)N[C@H](C(=O)N[C@@H](C)C(=O)N[C@@H](C)C(=O)N[C@@H](CC(C)C)C(=O)NCC(=O)N[C@@H](CCCNC(=N)N)C(=O)N[C@@H](CC(C)C)C(=O)N[C@@H](CO)C(=O)N[C@@H](C)C(=O)N[C@@H](CCC(=O)O)C(=O)N[C@@H](CC(C)C)C(=O)N[C@@H](Cc1c[nH]cn1)C(=O)N[C@@H](CCC(=O)O)C(=O)N[C@@H](CC(C)C)C(=O)N[C@@H](C)C(=O)N[C@H](C(=O)N[C@@H](CC(C)C)C(=O)N1CCC[C@H]1C(=O)N[C@@H](CCCNC(=N)N)C(=O)N[C@H](C(=O)N[C@@H](CCC(=O)O)C(=O)N[C@H](C(=O)NCC(=O)N[C@@H](CO)C(=O)NCC(=O)N[C@@H](CO)C(=O)N1CCC[C@H]1C(N)=O)[C@@H](C)O)[C@@H](C)O)[C@@H](C)O)[C@@H](C)O [compound 68, [N-terminal(acetyl), des1, 4K(C20 diacid-gGlu), 30S, 31G]mimylin] (Ac-ASK([γGlu-C20 diacid])LSTAALGRLSAELHELATLPRTETGSGSP-NH2) |
